Results as given in patent US12617783B2, “Heterocyclic GLP-1R agonists” (BIOMEA FUSION, INC., priority 2024, dated 2026).

target: T1, human GLP-1R (Homo sapiens, UniProt P43220); test: GLP-1R cAMP assay (Example B1a, HTRF, 30 min at room temperature); format: cell-based; conditions: cAMP accumulation in HEK293 expressing human GLP-1R, no BETP, 30 min room temperature (Method B1a, compounds ID 1-609), Table 1; read-out: EC50
T1 construct: host or cells: HEK293
Summary of the method: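 Competitive HTRF read-out of cAMP after 30 min room-temperature stimulation, BETP absent, of human GLP-1R-HEK293 cells (1,000/well) in HEPES buffer with 500 μM IBMX and 0.1% BSA. Activation normalised to GLP-1(7-37) positive control. EC50 from 4-parameter non-linear regression.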

T1 sequence (P43220 24-463): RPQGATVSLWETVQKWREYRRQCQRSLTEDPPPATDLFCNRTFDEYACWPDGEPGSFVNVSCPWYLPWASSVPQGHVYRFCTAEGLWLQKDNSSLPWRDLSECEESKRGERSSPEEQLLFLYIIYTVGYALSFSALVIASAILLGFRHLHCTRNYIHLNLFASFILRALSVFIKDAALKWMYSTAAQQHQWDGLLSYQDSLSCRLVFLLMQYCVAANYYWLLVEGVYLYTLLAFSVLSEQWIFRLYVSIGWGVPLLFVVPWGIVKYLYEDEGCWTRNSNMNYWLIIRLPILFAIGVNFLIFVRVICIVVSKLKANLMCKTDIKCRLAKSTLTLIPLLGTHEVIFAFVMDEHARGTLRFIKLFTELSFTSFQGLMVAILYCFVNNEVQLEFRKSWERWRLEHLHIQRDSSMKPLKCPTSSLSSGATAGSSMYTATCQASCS

Row | EC50 [nM] | Structure (SMILES)
1 | 1050 | Cc1cc(-n2nc3c(c2-n2ccn(-c4ccc5c(cnn5C)c4F)c2=O)[C@@H]2CC[C@H](C3)N2C(=O)c2cc3cc([C@H]4CCOC(C)(C)C4)ccc3n2[C@@]2(C(N)=O)C[C@@H]2C)cc(C)c1F [Compound 138, cis-(1S,2S)-1-[5-[(4S)-2,2-dimethyltetrahydropyran-4-yl]-2-[(1S,8R)-4-(4-fluoro-3,5-dimethyl-phenyl)-3-[3-(4-fluoro-1-methyl-indazol-5-yl)-2-oxo-imidazol-1-yl]-4,5,11-triazatricyclo[6.2.1.02,6]undeca-2,5-diene-11-carbonyl]indol-1-yl]-2-methyl-cyclopropanecarboxamide]
2 | 3110 | Cc1cc(-n2nc3c(c2-n2ccn(-c4ccc5c(cnn5C)c4F)c2=O)[C@@H]2CC[C@H](C3)N2C(=O)c2cc3nc(C4CCOC(C)(C)C4)sc3n2[C@@]2(c3noc(=O)[nH]3)C[C@@H]2C)cc(C)c1F (stereo partly drawn) [Compound 139, 3-[(1S,2S)-1-[2-(2,2-dimethyltetrahydropyran-4-yl)-5-[(1S,8R)-4-(4-fluoro-3,5-dimethyl-phenyl)-3-[3-(4-fluoro-1-methyl-indazol-5-yl)-2-oxo-imidazol-1-yl]-4,5,11-triazatricyclo[6.2.1.02,6]undeca-2,5-diene-11-carbonyl]pyrrolo[3,2-d]thiazol-4-yl]-2-methyl-cyclopropyl]-4H-1,2,4-oxadiazol-5-one]
3 | > 10000 | Cc1cc(-n2nc3c(c2-n2ccn(-c4ccc5c(cnn5C)c4F)c2=O)[C@@H]2CC[C@H](C3)N2C(=O)c2cc3cc([C@H]4CCOC(C)(C)C4)ccc3n2C(C)(C)c2noc(=O)[nH]2)cc(C)c1F [Compound 140, 3-[1-[5-[(4S)-2,2-dimethyltetrahydropyran-4-yl]-2-[(1S,8R)-4-(4-fluoro-3,5-dimethyl-phenyl)-3-[3-(4-fluoro-1-methyl-indazol-5-yl)-2-oxo-imidazol-1-yl]-4,5,11-triazatricyclo[6.2.1.02,6]undeca-2,5-diene-11-carbonyl]indol-1-yl]-1-methyl-ethyl]-4H-1,2,4-oxadiazol-5-one]
4 | > 10000 | Cc1cc(-n2nc3c(c2-n2ccn(-c4ccc5c(cnn5C)c4F)c2=O)[C@@H]2CC[C@H](C3)N2C(=O)c2cc3cc([C@H]4CCOC(C)(C)C4)ccc3n2[C@@]2(C(=O)NS(C)(=O)=O)C[C@@H]2C)cc(C)c1F [Compound 201, cis-(1S,2S)-1-[5-[(4S)-2,2-dimethyltetrahydropyran-4-yl]-2-[(1S,8R)-4-(4-fluoro-3,5-dimethyl-phenyl)-3-[3-(4-fluoro-1-methyl-indazol-5-yl)-2-oxo-imidazol-1-yl]-4,5,11-triazatricyclo[6.2.1.02,6]undeca-2,5-diene-11-carbonyl]indol-1-yl]-2-methyl-N-methylsulfonyl-cyclopropanecarboxamide]
5 | > 10000 | Cc1cc(-n2nc3c(c2-n2ccn(-c4ccc5c(cnn5C)c4F)c2=O)[C@@H]2CC[C@H](C3)N2C(=O)c2cc3nc(C4CCOC(C)(C)C4)sc3n2C2(c3noc(=O)[nH]3)CC2C)cc(C)c1F (stereo partly drawn) [Compound 202, 3-[1-[2-(2,2-dimethyltetrahydropyran-4-yl)-5-[(1S,8R)-4-(4-fluoro-3,5-dimethyl-phenyl)-3-[3-(4-fluoro-1-methyl-indazol-5-yl)-2-oxo-imidazol-1-yl]-4,5,11-triazatricyclo[6.2.1.02,6]undeca-2,5-diene-11-carbonyl]pyrrolo[3,2-d]thiazol-4-yl]-2-methyl-cyclopropyl]-4H-1,2,4-oxadiazol-5-one]
6 | 919 | CCP(=O)(CC)c1ccc(-n2ccn(-c3c4c(nn3-c3cc(C)c(F)c(C)c3)C[C@H]3CC[C@@H]4N3C(=O)c3cc4cc([C@H]5CCOC(C)(C)C5)ccc4n3[C@@]3(c4noc(=O)[nH]4)C[C@@H]3C)c2=O)cc1NC [Compound 203, 3-[(1S,2S)-1-[2-[(1S,8R)-3-[3-[4-diethylphosphoryl-3-(methylamino)phenyl]-2-oxo-imidazol-1-yl]-4-(4-fluoro-3,5-dimethyl-phenyl)-4,5,11-triazatricyclo[6.2.1.02,6]undeca-2,5-diene-11-carbonyl]-5-[(4S)-2,2-dimethyltetrahydropyran-4-yl]indol-1-yl]-2-methyl-cyclopropyl]-4H-1,2,4-oxadiazol-5-one]
7 | > 10000 | Cc1cc(-n2nc3c(c2-n2ccn(-c4ccc5c(cnn5C)c4F)c2=O)[C@@H]2CC[C@H](C3)N2C(=O)c2cc3cc([C@H]4CCOC(C)(C)C4)ccc3n2[C@@]2(C(=O)NS(=O)(=O)C3CC3)C[C@@H]2C)cc(C)c1F [Compound 204, cis-(1S,2S)-N-cyclopropylsulfonyl-1-[5-[(4S)-2,2-dimethyltetrahydropyran-4-yl]-2-[(1S,8R)-4-(4-fluoro-3,5-dimethyl-phenyl)-3-[3-(4-fluoro-1-methyl-indazol-5-yl)-2-oxo-imidazol-1-yl]-4,5,11-triazatricyclo[6.2.1.02,6]undeca-2,5-diene-11-carbonyl]indol-1-yl]-2-methyl-cyclopropanecarboxamide]
8 | > 10000 | Cc1cc(-n2nc3c(c2-n2ccn(-c4ccc5c(cnn5C)c4F)c2=O)[C@@H]2CC[C@H](C3)N2C(=O)c2cc3cc([C@H]4CCOC(C)(C)C4)ccc3n2[C@@]2(C(=O)NS(=O)(=O)N(C)C)C[C@@H]2C)cc(C)c1F [Compound 205, cis-(1S,2S)-N-(dimethylsulfamoyl)-1-[5-[(4S)-2,2-dimethyltetrahydropyran-4-yl]-2-[(1S,8R)-4-(4-fluoro-3,5-dimethyl-phenyl)-3-[3-(4-fluoro-1-methyl-indazol-5-yl)-2-oxo-imidazol-1-yl]-4,5,11-triazatricyclo[6.2.1.02,6]undeca-2,5-diene-11-carbonyl]indol-1-yl]-2-methyl-cyclopropanecarboxamide]
9 | 1440 | Cc1cc(-n2nc3c(c2-n2ccn(-c4ccc5c(cnn5C)c4F)c2=O)[C@@H]2CC[C@H](C3)N2C(=O)c2cc3nc([C@H]4CCOC(C)(C)C4)sc3n2[C@@]2(c3noc(=O)[nH]3)C[C@@H]2C)cc(C)c1F [Compound 206, 3-[(1S,2S)-1-[2-[(4S)-2,2-dimethyltetrahydropyran-4-yl]-5-[(1S,8R)-4-(4-fluoro-3,5-dimethyl-phenyl)-3-[3-(4-fluoro-1-methyl-indazol-5-yl)-2-oxo-imidazol-1-yl]-4,5,11-triazatricyclo[6.2.1.02,6]undeca-2,5-diene-11-carbonyl]pyrrolo[3,2-d]thiazol-4-yl]-2-methyl-cyclopropyl]-4H-1,2,4-oxadiazol-5-one]
10 | > 10000 | Cc1cc(-n2nc3c(c2-n2ccn(-c4ccc5c(cnn5C)c4F)c2=O)[C@@H]2CC[C@H](C3)N2C(=O)c2cc3nc([C@@H]4CCOC(C)(C)C4)sc3n2[C@@]2(c3noc(=O)[nH]3)C[C@@H]2C)cc(C)c1F [Compound 207, 3-[(1S,2S)-1-[2-[(4R)-2,2-dimethyltetrahydropyran-4-yl]-5-[(1S,8R)-4-(4-fluoro-3,5-dimethyl-phenyl)-3-[3-(4-fluoro-1-methyl-indazol-5-yl)-2-oxo-imidazol-1-yl]-4,5,11-triazatricyclo[6.2.1.02,6]undeca-2,5-diene-11-carbonyl]pyrrolo[3,2-d]thiazol-4-yl]-2-methyl-cyclopropyl]-4H-1,2,4-oxadiazol-5-one]
11 | 182 | Cc1cc(-n2nc3c(c2-n2ccn(-c4ccc5c(cnn5C)c4F)c2=O)[C@@H]2CC[C@H](C3)N2C(=O)c2cc3cc(C4CCOCC4)ccc3n2[C@@]2(c3noc(=O)[nH]3)C[C@@H]2C)cc(C)c1F [Compound 208, 3-((1S,2S)-1-(2-((4S,7R)-3-(3-(4-fluoro-1-methyl-1H-indazol-5-yl)-2-oxo-2,3-dihydro-1H-imidazol-1-yl)-2-(4-fluoro-3,5-dimethylphenyl)-2,4,5,6,7,8-hexahydro-4,7-epiminocyclohepta [c]pyrazole-9-carbonyl)-5-(tetrahydro-2H-pyran-4-yl)-1H-indol-1-yl)-2-methylcyclopropyl)-1,2,4-oxadiazol-5 (4H)-one]
12 | 117 | Cc1cc(-n2nc3c(c2-n2ccn(-c4ccc5c(cnn5C)c4F)c2=O)[C@@H]2CC[C@H](C3)N2C(=O)c2cc3cc(C4CCOC(C)(C)C4)ncc3n2[C@@]2(c3noc(=O)[nH]3)C[C@@H]2C)cc(C)c1F (stereo partly drawn) [Compound 209, 3-((1S,2S)-1-(5-(2,2-dimethyltetrahydro-2H-pyran-4-yl)-2-((4S,7R)-3-(3-(4-fluoro-1-methyl-1H-indazol-5-yl)-2-oxo-2,3-dihydro-1H-imidazol-1-yl)-2-(4-fluoro-3,5-dimethylphenyl)-2,4,5,6,7,8-hexahydro-4,7-epiminocyclohepta [c]pyrazole-9-carbonyl)-1H-pyrrolo[2,3-c]pyridin-1-yl)-2-methylcyclopropyl)-1,2,4-oxadiazol-5 (4H)-one]
13 | 959 | Cc1cc(-n2nc3c(c2-n2ccn(-c4ccc5c(cnn5C)c4F)c2=O)[C@@H]2CC[C@H](C3)N2C(=O)c2cc3nc(C4CCOC(C)(C)C4)ccc3n2[C@@]2(c3noc(=O)[nH]3)C[C@@H]2C)cc(C)c1F (stereo partly drawn) [Compound 210, 3-[(1S,2S)-1-[5-(2,2-dimethyltetrahydropyran-4-yl)-2-[(1S,8R)-4-(4-fluoro-3,5-dimethyl-phenyl)-3-[3-(4-fluoro-1-methyl-indazol-5-yl)-2-oxo-imidazol-1-yl]-4,5,11-triazatricyclo[6.2.1.02,6]undeca-2,5-diene-11-carbonyl]pyrrolo[3,2-b]pyridin-1-yl]-2-methyl-cyclopropyl]-4H-1,2,4-oxadiazol-5-one]
14 | 51 | Cc1cc(-n2nc3c(c2-n2ccn(-c4ccc5c(cnn5C)c4F)c2=O)[C@@H]2CC[C@H](C3)N2C(=O)c2cc3cc([C@H]4CCOC(C)(C)C4)ncc3n2[C@@]2(c3noc(=O)[nH]3)C[C@@H]2C)cc(C)c1F [Compound 211, 3-((1S,2S)-1-(5-((S)-2,2-dimethyltetrahydro-2H-pyran-4-yl)-2-((4S,7R)-3-(3-(4-fluoro-1-methyl-1H-indazol-5-yl)-2-oxo-2,3-dihydro-1H-imidazol-1-yl)-2-(4-fluoro-3,5-dimethylphenyl)-2,4,5,6,7,8-hexahydro-4,7-epiminocyclohepta [c]pyrazole-9-carbonyl)-1H-pyrrolo[2,3-c]pyridin-1-yl)-2-methylcyclopropyl)-1,2,4-oxadiazol-5 (4H)-one]
